These results are taken from article PMC7614683, “A small molecule PI3Kα activator for cardioprotection and neuroregeneration” (Nature, 2023).

Assay in all cases: SelectScreen Z-LYTE kinase activity assay (SI Table 6)
What all share (assay type): biochemical

In assay [1] the target is protein kinases of the Z-LYTE panel (Homo sapiens, UniProt Q9P1W9). In outline: (§1)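 Kinases in the SelectScreen panel (Adapta, LanthaScreen binding, Z-LYTE formats) were tested against compound at 1 μM. Separately, ATM (100 nM, 5 μM GST-p53, 1 mM ATP, 30 min, 30°C) and mTORC1 (50 nM, 15 μM 4E-BP1, 250 μM ATP, 3 h) were run with 200 μM compound. Those products were read on Phos-tag gels.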
protein kinases of the Z-LYTE panel (Homo sapiens, UniProt Q9P1W9), sequence (Q9P1W9 whole entry): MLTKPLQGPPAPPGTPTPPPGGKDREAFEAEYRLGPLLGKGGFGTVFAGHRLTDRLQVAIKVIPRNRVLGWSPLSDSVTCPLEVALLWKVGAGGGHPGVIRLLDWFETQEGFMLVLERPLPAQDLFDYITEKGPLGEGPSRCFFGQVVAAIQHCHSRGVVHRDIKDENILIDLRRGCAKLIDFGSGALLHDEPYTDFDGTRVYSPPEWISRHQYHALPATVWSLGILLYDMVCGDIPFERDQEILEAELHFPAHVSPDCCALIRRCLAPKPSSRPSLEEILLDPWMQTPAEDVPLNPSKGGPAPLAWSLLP

Assay [2] has as its target protein kinases of the Z-LYTE panel (Homo sapiens, UniProt P35968). The method in brief: as §1
Assay [3] concerns the target protein kinases of the Z-LYTE panel (Homo sapiens, UniProt Q13153). In outline:
as §1

In assay [4] the target is T1, protein kinases of the Z-LYTE panel (Homo sapiens, UniProt P36896).
T1 sequence (P36896 24-505): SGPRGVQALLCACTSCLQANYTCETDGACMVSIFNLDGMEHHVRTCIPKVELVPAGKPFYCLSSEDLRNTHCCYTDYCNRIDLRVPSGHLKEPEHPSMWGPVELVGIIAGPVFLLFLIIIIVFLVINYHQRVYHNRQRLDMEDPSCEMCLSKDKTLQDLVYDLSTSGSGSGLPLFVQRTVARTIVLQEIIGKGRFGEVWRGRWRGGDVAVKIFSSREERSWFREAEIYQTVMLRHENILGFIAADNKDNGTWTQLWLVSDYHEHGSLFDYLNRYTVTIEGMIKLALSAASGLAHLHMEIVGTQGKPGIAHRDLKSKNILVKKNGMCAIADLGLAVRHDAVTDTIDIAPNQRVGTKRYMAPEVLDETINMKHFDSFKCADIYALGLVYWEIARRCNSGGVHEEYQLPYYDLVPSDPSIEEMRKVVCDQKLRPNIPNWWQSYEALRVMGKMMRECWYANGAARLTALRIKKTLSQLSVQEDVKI
In outline:
as §1

In assay [5] the target is protein kinases of the Z-LYTE panel (Homo sapiens, UniProt P31751). The method in brief:
as §1

Assay [6] deals with protein kinases of the Z-LYTE panel (Homo sapiens, UniProt P19784). In outline:
as §1

Assay [7] deals with protein kinases of the Z-LYTE panel (Homo sapiens, UniProt P07949). The method in brief: as §1
protein kinases of the Z-LYTE panel (Homo sapiens, UniProt P07949), sequence (P07949 29-1114): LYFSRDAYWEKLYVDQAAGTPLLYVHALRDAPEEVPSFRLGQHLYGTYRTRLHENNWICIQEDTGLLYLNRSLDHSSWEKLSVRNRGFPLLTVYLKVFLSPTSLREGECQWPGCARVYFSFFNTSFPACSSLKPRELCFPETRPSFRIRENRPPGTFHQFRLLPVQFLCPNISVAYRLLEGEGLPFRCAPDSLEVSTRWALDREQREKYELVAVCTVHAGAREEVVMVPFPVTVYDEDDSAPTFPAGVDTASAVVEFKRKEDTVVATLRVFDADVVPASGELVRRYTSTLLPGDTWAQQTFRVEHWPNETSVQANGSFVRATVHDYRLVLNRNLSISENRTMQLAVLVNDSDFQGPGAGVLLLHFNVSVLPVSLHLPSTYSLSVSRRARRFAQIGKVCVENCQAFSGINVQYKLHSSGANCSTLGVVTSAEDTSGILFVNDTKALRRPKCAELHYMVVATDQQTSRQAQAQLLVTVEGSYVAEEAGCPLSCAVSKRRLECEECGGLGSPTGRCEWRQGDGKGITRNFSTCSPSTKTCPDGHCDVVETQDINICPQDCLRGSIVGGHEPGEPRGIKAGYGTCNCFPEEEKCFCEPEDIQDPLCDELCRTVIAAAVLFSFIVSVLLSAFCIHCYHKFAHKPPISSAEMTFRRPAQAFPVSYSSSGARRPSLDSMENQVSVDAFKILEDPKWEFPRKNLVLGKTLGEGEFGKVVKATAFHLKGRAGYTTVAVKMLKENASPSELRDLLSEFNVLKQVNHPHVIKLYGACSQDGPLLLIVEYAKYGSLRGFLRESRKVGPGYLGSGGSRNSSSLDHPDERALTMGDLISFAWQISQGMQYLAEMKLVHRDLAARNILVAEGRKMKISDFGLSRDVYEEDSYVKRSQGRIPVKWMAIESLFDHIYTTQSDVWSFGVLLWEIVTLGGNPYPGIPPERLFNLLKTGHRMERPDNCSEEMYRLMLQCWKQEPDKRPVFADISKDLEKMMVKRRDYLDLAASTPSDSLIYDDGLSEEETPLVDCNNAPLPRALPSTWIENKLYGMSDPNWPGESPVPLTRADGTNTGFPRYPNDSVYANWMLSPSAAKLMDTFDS

Where two headings read alike, the source gives them in different places.

One may read the inhibition as the change of the read-out against control, counted positive when it falls.

protein kinases of the Z-LYTE panel (Homo sapiens, UniProt P31751), sequence (P31751 whole entry): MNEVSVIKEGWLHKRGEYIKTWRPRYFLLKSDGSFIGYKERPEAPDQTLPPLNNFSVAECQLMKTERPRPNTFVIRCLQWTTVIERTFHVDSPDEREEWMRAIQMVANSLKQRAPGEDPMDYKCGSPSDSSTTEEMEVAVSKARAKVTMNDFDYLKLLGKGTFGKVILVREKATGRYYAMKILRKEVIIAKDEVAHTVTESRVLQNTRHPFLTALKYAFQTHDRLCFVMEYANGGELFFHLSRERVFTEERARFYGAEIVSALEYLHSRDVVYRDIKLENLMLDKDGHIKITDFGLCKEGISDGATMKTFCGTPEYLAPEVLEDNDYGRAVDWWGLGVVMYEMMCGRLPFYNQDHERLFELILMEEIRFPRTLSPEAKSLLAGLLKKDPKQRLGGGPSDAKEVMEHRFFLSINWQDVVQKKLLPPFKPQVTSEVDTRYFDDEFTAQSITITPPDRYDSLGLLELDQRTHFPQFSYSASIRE
protein kinases of the Z-LYTE panel (Homo sapiens, UniProt Q13153), sequence (Q13153 whole entry): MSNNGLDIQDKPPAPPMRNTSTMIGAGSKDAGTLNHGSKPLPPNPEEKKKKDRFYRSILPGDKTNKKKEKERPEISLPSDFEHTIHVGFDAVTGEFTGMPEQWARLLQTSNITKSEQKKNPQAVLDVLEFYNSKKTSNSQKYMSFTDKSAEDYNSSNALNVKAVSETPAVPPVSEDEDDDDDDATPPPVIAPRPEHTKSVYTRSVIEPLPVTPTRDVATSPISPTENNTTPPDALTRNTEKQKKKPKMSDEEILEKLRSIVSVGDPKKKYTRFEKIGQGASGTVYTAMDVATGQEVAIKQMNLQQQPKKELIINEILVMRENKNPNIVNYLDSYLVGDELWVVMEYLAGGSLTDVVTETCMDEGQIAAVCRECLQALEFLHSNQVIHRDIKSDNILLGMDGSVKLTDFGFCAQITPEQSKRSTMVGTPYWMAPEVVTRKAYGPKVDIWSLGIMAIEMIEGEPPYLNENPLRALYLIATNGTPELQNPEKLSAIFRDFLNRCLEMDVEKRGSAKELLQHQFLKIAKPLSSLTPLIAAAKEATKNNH
protein kinases of the Z-LYTE panel (Homo sapiens, UniProt P35968), sequence (P35968 20-1356): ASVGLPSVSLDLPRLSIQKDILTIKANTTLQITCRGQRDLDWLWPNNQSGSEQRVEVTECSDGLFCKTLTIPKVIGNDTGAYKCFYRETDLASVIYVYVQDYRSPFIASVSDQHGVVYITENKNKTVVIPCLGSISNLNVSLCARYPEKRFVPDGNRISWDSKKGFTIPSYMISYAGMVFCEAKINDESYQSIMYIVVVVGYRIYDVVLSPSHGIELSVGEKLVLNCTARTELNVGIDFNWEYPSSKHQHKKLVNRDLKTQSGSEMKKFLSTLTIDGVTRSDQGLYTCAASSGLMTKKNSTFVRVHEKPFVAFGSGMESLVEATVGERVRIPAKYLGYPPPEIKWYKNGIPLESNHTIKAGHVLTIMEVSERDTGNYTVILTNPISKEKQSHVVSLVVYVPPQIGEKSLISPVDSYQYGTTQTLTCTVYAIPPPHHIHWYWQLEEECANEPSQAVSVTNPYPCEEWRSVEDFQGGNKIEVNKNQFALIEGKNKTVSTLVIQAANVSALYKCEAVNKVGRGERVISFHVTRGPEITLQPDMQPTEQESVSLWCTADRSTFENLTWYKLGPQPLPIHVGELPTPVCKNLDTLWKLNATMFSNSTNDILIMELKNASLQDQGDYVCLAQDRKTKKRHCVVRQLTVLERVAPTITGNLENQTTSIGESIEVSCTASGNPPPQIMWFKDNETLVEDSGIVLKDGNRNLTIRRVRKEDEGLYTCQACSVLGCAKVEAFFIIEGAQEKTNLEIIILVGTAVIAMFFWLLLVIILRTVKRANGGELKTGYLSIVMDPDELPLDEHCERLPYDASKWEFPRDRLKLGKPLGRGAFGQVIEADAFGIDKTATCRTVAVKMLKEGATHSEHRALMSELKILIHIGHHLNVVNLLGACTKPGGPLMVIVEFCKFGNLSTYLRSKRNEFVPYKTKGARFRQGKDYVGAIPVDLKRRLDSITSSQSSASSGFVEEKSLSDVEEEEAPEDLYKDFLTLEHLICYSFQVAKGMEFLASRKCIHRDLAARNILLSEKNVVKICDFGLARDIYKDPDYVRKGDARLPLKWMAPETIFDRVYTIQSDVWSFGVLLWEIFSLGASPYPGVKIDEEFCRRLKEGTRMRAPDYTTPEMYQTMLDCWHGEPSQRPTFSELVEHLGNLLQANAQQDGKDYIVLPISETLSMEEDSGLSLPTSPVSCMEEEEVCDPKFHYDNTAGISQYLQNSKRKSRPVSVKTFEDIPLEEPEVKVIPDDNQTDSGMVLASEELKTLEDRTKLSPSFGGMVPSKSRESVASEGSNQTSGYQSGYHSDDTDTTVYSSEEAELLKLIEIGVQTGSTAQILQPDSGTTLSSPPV
protein kinases of the Z-LYTE panel (Homo sapiens, UniProt P19784), sequence (P19784 whole entry): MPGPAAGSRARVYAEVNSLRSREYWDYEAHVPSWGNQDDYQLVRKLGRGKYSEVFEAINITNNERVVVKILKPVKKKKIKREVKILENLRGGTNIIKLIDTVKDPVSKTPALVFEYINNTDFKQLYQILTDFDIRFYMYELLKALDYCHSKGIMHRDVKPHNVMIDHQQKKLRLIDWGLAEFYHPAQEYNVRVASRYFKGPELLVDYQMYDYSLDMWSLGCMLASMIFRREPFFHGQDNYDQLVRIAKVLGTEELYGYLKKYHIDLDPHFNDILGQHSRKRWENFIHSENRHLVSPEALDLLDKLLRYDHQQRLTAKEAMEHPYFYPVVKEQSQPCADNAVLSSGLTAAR

As to `CCN1CCN(c2ccc(Nc3cc(Nc4cccc5c4N(C(C)=O)CC5)ccn3)cc2)CC1` [Compound 1938], the inhibition at 1 µM was found to be 2% in assay [1] (read-out: % Inhibition Point 1); 0.0719% in assay [1] (read-out: % Inhibition Point 2); 1% in assay [1] (read-out: % Inhibition mean); 10% in assay [2] (read-out: % Inhibition Point 1); 6.41% in assay [2] (read-out: % Inhibition Point 2); 8% in assay [2] (read-out: % Inhibition mean). Moreover, the inhibition at 1 µM was 2.85% in assay [3] (read-out: % Inhibition Point 1); 5% in assay [3] (read-out: % Inhibition Point 2); 4% in assay [3] (read-out: % Inhibition mean); -27% in assay [4] (read-out: % Inhibition Point 1); -3% in assay [4] (read-out: % Inhibition Point 2); -15% in assay [4] (read-out: % Inhibition mean). The inhibition at 1 µM in assay [5] (read-out: % Inhibition Point 1) amounted to 0.378%; in assay [5] (read-out: % Inhibition Point 2) it was 0.753%; in assay [5] (read-out: % Inhibition mean), 0.565%; in assay [6] (read-out: % Inhibition Point 1) it was 0.87%; in assay [6] (read-out: % Inhibition Point 2), 2.67%; in assay [6] (read-out: % Inhibition mean) it was 1.77%. Further, the inhibition at 1 µM in assay [7] (read-out: % Inhibition Point 1), in assay [7] (read-out: % Inhibition Point 2) and in assay [7] (read-out: % Inhibition mean) was 15% in each case.
